Data reported in paper PMC7320009 (Scientific Reports, 2020).

Tests used:
BPSS2242 [1] = biological target: T1, BPSS2242 (Burkholderia pseudomallei, UniProt Q63I27)
BPSS2242 [2] = biological target: T1, BPSS2242; remark: listed apart in the source

T1 sequence (Q63I27 1-271 limits assumed): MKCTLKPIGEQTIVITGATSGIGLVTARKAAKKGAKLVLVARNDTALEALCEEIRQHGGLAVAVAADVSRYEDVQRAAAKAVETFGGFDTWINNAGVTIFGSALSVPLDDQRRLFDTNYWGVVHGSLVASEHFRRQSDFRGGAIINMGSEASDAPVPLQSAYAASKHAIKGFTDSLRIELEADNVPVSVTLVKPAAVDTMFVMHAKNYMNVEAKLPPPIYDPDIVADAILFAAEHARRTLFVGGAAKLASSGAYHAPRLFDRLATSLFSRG

Row | SMILES | Tm (BPSS2242 [1]) [°C] | NADPH oxidation at 340 nm (BPSS2242 [2])
1 | NC(=O)C1=CN([C@@H]2O[C@H](COP(=O)(O)OP(=O)(O)OC[C@H]3O[C@@H](n4cnc5c(N)ncnc54)[C@H](OP(=O)(O)O)[C@@H]3O)[C@@H](O)[C@H]2O)C=CC1 [NADPH] | 55.23 | –
2 | CC(=O)C=O [methylglyoxal] | – | BPSS2242 exhibited reductase activity toward diacetyl and methylglyoxal when NADPH was used
